Data as given in patent US5889029A, “Use of cotinine in treating psychiatric disorders” (priority 1997, dated 1999).

What was measured:
[1] = target: T1, recombinant Rat 5HT7 Clone (Rattus norvegicus, UniProt P32305); assay: Serotonin--5HT7 Clone Binding Assay; conditions: 10^-6 M, [3H]LSD 2.0 nM, read-out: Receptor Binding Activity Percent Inhibition Average (N = 2)
T1 construct: expressed in transfected cells

[2] = target: T2, Inositol Triphosphate (IP3) (Rattus norvegicus, UniProt P29994); assay: Inositol Triphosphate (IP3) Binding Assay; conditions: 10^-6 M; Rat cerebellar membranes; [3H]IP3 4.0 nM; read-out: Receptor Binding Activity Percent Inhibition Average (N = 2)
T2 construct: Rat cerebellar membranes; from tissue; host or cells: rat cerebellar membranes
Experimental: Tissue cultures were prepared using standard laboratory practice for the following tissues: human recombinant M1 clone, human recombinant M2 clone, guinea pig striatal membranes, rat cortical membranes, rat striatal membranes, rat forebrain membranes, bovine hippocampal membranes, guinea pig cerebellar membranes, rat kidney membranes, recombinant rat 5HT7 clone, and rat cerebellar membranes.
Inositol Triphosphate (IP3) Binding Assay
Rat cerebellar membranes
Radioligand: [^3 H]IP3 (10-30 Ci/mmol)
Final ligand concentration - [4.0 nM]
D-myo-inositol 1,4,5-triphosphate
Reactions are carried out in 50 mM TRIS-HCl (pH 8.3)
1 mM EDTA at 0° C. for 10 minutes. The reaction is
rapid vacuum filtration onto glass fiber filters.
onto the filters is determined and compared to control
order to ascertain any interactions of test compound with
inositol triphospate binding site.

[3] = test system: glutamatergic transmission; conditions: application to CNS sites in vitro; cited from earlier work
Serotonin (5HT1) = Serotonin (5HT1) Binding Assay; conditions: 10^-6 M; Rat cortical membranes; [3H]Hydroxytryptamine binoxalate 3.0 nM
GABA uptake site = target: T3, GABA uptake site (Rattus norvegicus, UniProt P23978); assay: biochemical; conditions: read-out: Receptor Binding Activity Percent Inhibition Average (N = 2)
T3 construct: Rat cortical membranes; from tissue; host or cells: rat cortical membranes

[4] = target: T4, Benzodiazepine (Peripheral) (Rattus norvegicus, UniProt P16257); assay: Benzodiazepine (Peripheral) Binding Assay; conditions: read-out: Receptor Binding Activity Percent Inhibition Average (N = 2)
T4 construct: Rat kidney membranes; from tissue; host or cells: rat kidney membranes
T4 sequence (P16257 whole entry): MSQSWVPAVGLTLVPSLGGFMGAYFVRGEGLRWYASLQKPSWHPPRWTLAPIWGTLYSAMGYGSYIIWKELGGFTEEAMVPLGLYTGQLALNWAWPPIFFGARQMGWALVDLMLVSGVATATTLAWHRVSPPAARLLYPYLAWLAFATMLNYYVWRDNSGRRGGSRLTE

Serotonin (5HT1A) = target: T5, Serotonin (5HT1A) (Bos taurus, UniProt F6Q2H9); assay: Serotonin (5HT1A) Binding Assay; design: species or system Bovine; conditions: 10^-6 M; Bovine hippocampal membranes; [3H]-8-OH-DPAT 1.0 nM; read-out: Receptor Binding Activity Percent Inhibition Average (N = 2)
T5 construct: Bovine hippocampal membranes; from tissue; host or cells: bovine hippocampal membranes
T5 sequence (F6Q2H9 1-422): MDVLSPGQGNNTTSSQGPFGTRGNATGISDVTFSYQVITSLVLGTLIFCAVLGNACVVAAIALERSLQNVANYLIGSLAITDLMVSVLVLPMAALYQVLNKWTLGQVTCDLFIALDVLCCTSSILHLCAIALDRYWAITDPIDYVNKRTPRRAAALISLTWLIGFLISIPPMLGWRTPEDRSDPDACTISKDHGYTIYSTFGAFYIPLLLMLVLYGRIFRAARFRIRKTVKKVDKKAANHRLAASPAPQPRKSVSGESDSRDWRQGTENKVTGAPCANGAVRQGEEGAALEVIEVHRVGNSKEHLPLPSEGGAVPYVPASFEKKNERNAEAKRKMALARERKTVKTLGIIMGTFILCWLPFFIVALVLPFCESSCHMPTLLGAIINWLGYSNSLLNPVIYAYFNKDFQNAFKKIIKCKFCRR

Dopamine (D1 Central) = target: T6, Dopamine (D1 Central) (Rattus norvegicus, UniProt P18901); assay: Dopamine (D1 Central) Binding Assay; conditions: 10^-6 M; Rat striatal membranes; [3H]SCH 23390 0.5 nM
T6 construct: Rat striatal membranes; from tissue; host or cells: rat striatal membranes
T6 sequence (P18901 whole entry): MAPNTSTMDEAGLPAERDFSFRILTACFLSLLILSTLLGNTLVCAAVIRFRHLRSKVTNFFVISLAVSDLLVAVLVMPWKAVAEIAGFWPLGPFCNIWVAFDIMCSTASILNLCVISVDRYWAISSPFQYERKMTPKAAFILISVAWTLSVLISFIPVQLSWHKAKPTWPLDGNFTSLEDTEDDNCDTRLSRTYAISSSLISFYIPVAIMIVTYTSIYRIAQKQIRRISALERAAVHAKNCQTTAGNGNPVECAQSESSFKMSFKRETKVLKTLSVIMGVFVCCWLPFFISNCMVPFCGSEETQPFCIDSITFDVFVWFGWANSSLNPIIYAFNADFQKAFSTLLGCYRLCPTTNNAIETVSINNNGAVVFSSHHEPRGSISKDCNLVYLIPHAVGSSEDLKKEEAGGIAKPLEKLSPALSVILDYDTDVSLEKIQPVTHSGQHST

[5] = target: Glycine (Strychnine Insensitive) (Rattus norvegicus, UniProt P35439); assay: biochemical; format: binding; conditions: read-out: Receptor Binding Activity Percent Inhibition Average (N = 2)
dopamine uptake site = target: T7, dopamine uptake site (Cavia porcellus, UniProt H0WCX4); assay: Dopamine Reuptake Binding Assay; conditions: 10^-6 M; Guinea pig striatal membranes; [3H]WIN,35,428 1.0 nM
T7 construct: Guinea pig striatal membranes; from tissue; host or cells: guinea pig striatal membranes
T7 sequence (H0WCX4 1-619): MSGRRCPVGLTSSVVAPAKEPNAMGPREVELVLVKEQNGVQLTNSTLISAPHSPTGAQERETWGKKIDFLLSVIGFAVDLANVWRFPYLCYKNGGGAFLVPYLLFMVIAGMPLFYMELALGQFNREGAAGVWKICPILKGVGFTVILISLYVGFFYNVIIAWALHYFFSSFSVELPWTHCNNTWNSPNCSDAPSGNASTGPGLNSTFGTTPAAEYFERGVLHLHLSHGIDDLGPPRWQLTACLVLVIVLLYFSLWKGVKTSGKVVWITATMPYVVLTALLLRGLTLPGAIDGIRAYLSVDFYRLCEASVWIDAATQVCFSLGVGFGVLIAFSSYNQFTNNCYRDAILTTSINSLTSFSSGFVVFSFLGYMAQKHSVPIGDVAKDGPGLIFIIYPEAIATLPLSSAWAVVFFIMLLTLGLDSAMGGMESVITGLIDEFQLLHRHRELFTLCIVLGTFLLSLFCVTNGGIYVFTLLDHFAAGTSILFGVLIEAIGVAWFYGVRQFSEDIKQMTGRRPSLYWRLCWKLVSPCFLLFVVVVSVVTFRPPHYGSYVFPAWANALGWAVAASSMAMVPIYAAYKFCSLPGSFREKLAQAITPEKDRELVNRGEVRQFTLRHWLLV

[6] = test system: Serotonin (Non-Selective); assay: Serotonin (Non-Selective) Binding Assay; conditions: 10^-6 M; Rat cortical membranes; [3H]Lysergic acid diethylamide 5.0 nM
Histamine (H3) = target: T8, Histamine (H3) (Rattus norvegicus, UniProt Q9QYN8); assay: Histamine (H3) Binding Assay; conditions: 10^-6 M; Rat forebrain membranes; [3H]N^a-methylhistamine 0.2 nM; read-out: Receptor Binding Activity Percent Inhibition Average (N = 2)
T8 construct: Rat forebrain membranes; from tissue; host or cells: rat forebrain membranes
T8 sequence (Q9QYN8 whole entry): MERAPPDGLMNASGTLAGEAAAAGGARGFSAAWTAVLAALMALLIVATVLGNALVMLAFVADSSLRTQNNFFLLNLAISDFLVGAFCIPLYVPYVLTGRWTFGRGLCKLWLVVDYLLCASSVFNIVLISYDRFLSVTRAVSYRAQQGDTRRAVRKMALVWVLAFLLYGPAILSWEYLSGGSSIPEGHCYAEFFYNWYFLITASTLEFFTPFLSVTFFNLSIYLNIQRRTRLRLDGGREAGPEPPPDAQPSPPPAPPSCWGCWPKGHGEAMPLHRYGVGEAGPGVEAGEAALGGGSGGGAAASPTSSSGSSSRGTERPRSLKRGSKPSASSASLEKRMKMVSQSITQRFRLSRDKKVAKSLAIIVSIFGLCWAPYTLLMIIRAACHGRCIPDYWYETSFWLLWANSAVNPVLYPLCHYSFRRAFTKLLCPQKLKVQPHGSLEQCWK

[7] = test system: Glutamic Acid Decarboxylase (GAD); assay: Glutamic Acid Decarboxylase (GAD) Enzyme Assay; format: biochemical; conditions: 10^-8 M; Rat corpus striatal membranes; [14C]L-Glutamic acid
Experimental: Radioimmunoassay studies were conducted with rat corpus striatal membranes using the following method.
Glutamic Acid Decarboxylase (GAD) Enzyme Assay
Rat corpus striatal membranes
Substrate: [^14 C]L-Glutamic acid (30-80 Ci/mmol)
Reactions are incubated in phosphate/mercapoethanol buffer
6.9) for 30 minutes at 37° C. The reaction is
stopped by the addition
of trichloroacetic acid and placement on ice. Radioactive
trapped in phenylethylamine/methanol and quantitated using
scintillation […] in order to ascertain any
of test compounds with the glutamic acid decarboxylase

Histamine (H2) = target: T9, Histamine (H2) (Cavia porcellus, UniProt P47747); assay: Histamine (H2) Binding Assay; design: species or system Guinea pig; conditions: 10^-6 M; Guinea pig striatal membranes; [3H]Tiotidine 4.0 nM; read-out: Receptor Binding Activity Percent Inhibition Average (N = 2)
T9 construct: Guinea pig striatal membranes; from tissue; host or cells: guinea pig striatal membranes
T9 sequence (P47747 whole entry): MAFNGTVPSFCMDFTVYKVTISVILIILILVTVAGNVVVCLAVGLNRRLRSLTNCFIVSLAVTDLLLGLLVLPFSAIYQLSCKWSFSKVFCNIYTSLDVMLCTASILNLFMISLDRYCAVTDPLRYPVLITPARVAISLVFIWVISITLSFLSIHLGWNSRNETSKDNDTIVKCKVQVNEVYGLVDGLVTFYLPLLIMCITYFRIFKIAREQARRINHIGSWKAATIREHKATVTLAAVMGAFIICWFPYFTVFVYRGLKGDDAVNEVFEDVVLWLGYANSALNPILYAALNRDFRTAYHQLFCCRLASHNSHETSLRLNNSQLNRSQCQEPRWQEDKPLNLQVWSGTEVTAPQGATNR

Opiate (Delta) = target: T10, Opiate (Delta) (Rattus norvegicus, UniProt P33533); assay: Opiate (Delta) Binding Assay; conditions: read-out: Receptor Binding Activity Percent Inhibition Average (N = 2)
T10 construct: Rat forebrain membranes; from tissue; host or cells: rat forebrain membranes
T10 sequence (P33533 whole entry): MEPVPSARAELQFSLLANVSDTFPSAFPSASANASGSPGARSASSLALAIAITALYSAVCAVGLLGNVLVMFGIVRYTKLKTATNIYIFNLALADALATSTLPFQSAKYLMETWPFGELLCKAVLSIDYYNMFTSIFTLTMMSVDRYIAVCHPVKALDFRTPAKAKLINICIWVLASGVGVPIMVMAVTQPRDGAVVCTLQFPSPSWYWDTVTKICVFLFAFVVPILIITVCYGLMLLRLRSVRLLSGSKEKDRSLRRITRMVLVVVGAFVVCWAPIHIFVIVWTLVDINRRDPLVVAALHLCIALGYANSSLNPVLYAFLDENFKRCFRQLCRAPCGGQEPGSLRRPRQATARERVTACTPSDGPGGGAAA

[8] = target: T11, Human recombinant M2 clone (Homo sapiens, UniProt P08172); assay: Muscarinic--M2 Clone Binding Assay; conditions: read-out: Receptor Binding Activity Percent Inhibition Average (N = 2)
T11 construct: expressed in transfected cells
T11 sequence (P08172 1-466): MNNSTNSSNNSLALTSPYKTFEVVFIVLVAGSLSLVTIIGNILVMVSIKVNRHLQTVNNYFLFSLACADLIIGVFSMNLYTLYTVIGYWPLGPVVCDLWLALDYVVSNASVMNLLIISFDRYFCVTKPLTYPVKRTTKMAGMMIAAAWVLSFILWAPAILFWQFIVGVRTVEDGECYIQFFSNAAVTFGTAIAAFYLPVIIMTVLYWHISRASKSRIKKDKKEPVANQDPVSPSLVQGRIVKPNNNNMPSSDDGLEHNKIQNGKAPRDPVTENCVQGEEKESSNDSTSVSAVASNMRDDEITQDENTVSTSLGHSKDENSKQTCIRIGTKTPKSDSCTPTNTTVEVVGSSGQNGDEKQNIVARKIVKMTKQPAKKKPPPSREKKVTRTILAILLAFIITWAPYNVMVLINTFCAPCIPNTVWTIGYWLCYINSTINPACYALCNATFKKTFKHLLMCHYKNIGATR

[9] = in the human; in vivo; cited from earlier work

T1 sequence (P32305 whole entry): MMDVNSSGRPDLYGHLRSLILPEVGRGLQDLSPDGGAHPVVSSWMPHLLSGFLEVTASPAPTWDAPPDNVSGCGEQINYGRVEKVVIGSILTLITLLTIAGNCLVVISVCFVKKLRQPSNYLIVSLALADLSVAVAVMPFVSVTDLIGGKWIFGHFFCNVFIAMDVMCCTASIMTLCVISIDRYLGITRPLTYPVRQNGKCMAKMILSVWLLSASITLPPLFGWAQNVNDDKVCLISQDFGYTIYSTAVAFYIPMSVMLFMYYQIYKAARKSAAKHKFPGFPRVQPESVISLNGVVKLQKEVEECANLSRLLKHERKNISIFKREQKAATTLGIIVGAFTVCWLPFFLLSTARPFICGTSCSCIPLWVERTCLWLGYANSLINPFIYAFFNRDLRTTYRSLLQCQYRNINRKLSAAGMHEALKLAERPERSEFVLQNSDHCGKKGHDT

SMILES: CN1CCCC1c1cccnc1 (centres unmarked) [Nicotine, reference compound]
- inhibition at 1 µM [1]: 8%
- inhibition at 1 µM [2]: 3.2%
- amplitude of the evoked currents [3]: more than doubled
- Receptor Binding Activity Percent Inhibition Average (N = 2) (Serotonin (5HT1)): -1.4%
- inhibition at 1 µM (GABA uptake site): 12.1%
- inhibition at 1 µM [4]: 3.1%
- inhibition at 1 µM (Serotonin (5HT1A)): 3.3%
- Receptor Binding Activity Percent Inhibition Average (N = 2) (Dopamine (D1 Central)): 2.6%
- inhibition at 1 µM [5]: 1.5%
- Receptor Binding Activity Percent Inhibition Average (N = 2) (dopamine uptake site): 9.2%
- Receptor Binding Activity Percent Inhibition Average (N = 2) [6]: 6.3%
- inhibition at 1 µM (Histamine (H3)): 13.5%
- Percent Inhibition [7]: 40%
- inhibition at 1 µM (Histamine (H2)): 45.9%
- inhibition at 1 µM (Opiate (Delta)): 10.1%
- inhibition at 1 µM [8]: 4.4%
- half-life [9]: one to two
